Data: publication PMC12040169 (PLOS Biology, 2025)

Assay: in vitro
Conditions: human, hela cells, % viability

Point of comparison: O=C(Nc1cccnc1N1CCNCC1)c1ccccn1 [CBK029425T], viability at 28.5 h, 10 µM 116%. Against it:
- CC(C)(C)NC(=O)N1CCC(Nc2nccc(C(F)(F)F)n2)CC1 [CBK028788] — lower, 113%
- N#CCSc1nnc(NC(=O)Nc2ccccc2)s1 [CBK028792] — lower, 85.3%
- C#CC1(NC(=O)NS(=O)(=O)c2ccc(C)cc2)CCCCC1 [CBK028805] — lower, 96.9%
- Cn1c(S)nnc1-c1ccccc1F [CBK028811] — lower, 95%
- O=C1CN=C(N2C(=O)C3C4C=CC(C4)C3C2=O)C(=O)N1 (centres unmarked) [CBK028818] — lower, 89.7%
- Cc1nnc(N/N=C\c2ccco2)n1N [CBK028824C] — lower, 97.4%
- O=C(Nc1cc(Cl)ccc1Cl)c1ncn[nH]1 [CBK028834] — lower, 92.9%
- Nc1nonc1N/N=C/c1ccccc1F [CBK028838] — lower, 68.4%
- CC1=CC(=O)Nc2ccccc2S1 [CBK028872] — higher, 118%
- Cc1ccnc(SCC(N)=O)n1 [CBK028874] — lower, 96.1%
- COc1cc(CCN2CCN(C(C)C)CC2)cc(OC)c1OC [CBK028881C] — lower, 89.8%
- Cc1cc(C(=O)O)c2[nH]c3c(c2c1)CCCC3 [CBK028885] — lower, 95.5%
- COc1cc(C=C2C(=O)OC(C)(C(C)(C)C)OC2=O)cc(Br)c1OC (centres unmarked) [CBK028893] — lower, 96.5%
- CC(C)N1CCN(c2nccnc2Cl)CC1 [CBK028901] — lower, 101%
- CC(C)(C)c1cc(NC(=O)c2csc3c(C(F)(F)F)cc(N4CCN(Cc5ccccc5)CC4)nc23)no1 [CBK028962] — lower, 108%
- CC1(C)CC(NC2=CC(=O)CC2)CC(C)(C)N1 [CBK028997] — lower, 115%
- O=C(Nc1cccc(N2CCNCC2)c1)c1cnc2ccccc2c1 [CBK029415T] — lower, 83.2%
- COc1ccc(C(=O)Nc2cccnc2N2CCNCC2)cc1 [CBK029421T] — lower, 102%
- O=C(Nc1ccc(N2CCNCC2)nc1)c1cccs1 [CBK029430T] — lower, 111%
- COc1ccc(C(=O)Nc2ccc(N3CCNCC3)nc2)cc1 [CBK029434T] — lower, 111%
- N#Cc1ccc(C(=O)Nc2ccc(N3CCNCC3)nc2)cc1 [CBK029435T] — lower, 95.2%
- O=C(Nc1ccccc1N1CCNCC1)c1cccs1 [CBK029443T] — lower, 95.5%
- O=C(NCc1ccccc1OC1CCNC1)c1cnccn1 (centres unmarked) [CBK029462T] — lower, 101%
- Cn1cccc1C(=O)NCc1ccccc1OC1CCNC1 (centres unmarked) [CBK029463T] — lower, 88.7%
- O=C(Nc1cccc(N2CCNCC2)c1)c1cnccn1 [CBK029470T] — lower, 90.3%
- CNCC(=O)N1CCN(C(=O)c2ccc(Cl)cc2Cl)CC1 [CBK029576] — lower, 99.9%
- O=C(O)c1ccc2[nH]c(=O)[nH]c2c1 [CBK032631] — lower, 81.3%
- CC(C)COc1ccccc1C(=O)NCCC(=O)O [CBK033507] — lower, 102%
- Cc1cc(OCCCCNCCO)ccc1Cl [CBK033516] — lower, 111%
- CS(=O)(=O)N(Cc1ccccc1)c1ccc(C(=O)Nc2ccc3c(c2)OCO3)cc1 [CBK033562] — lower, 85.4%
- CC1(C)NC(=O)N(CC(O)CN(c2cc(Cl)ccc2Cl)S(=O)(=O)c2ccccc2)C1=O (centres unmarked) [CBK033672] — lower, 91.4%
- COc1ccc(C2Nc3ccccc3C(=O)N2Cc2ccccc2)cc1COc1ccc([N+](=O)[O-])cc1 (centres unmarked) [CBK033690] — lower, 86.9%
- O=C(c1ccc(C#CC2(O)CCCCC2)cc1)N1CCC(C(O)(c2ccccc2)c2ccccc2)CC1 [CBK033758] — lower, 84.7%
- Cc1ccc([N+](=O)[O-])cc1NC(=O)C1CCCN1S(=O)(=O)c1ccc(Cl)cc1 (centres unmarked) [CBK033769] — lower, 95.7%
- COc1ccc(CN2CCN(Cc3ccc4c(c3)OCO4)CC2)c(OC)c1OC [CBK033874] — lower, 91.4%
- COc1cc(C(=O)Nc2ccc(-c3nc4ncccc4o3)cc2)ccc1OCc1ccc(Cl)cc1 [CBK033914] — lower, 92.7%
- CCCC1COC(c2ccc(C#N)cc2)OC1 (centres unmarked) [CBK033941] — lower, 94.5%
